Literature values, collected in article PMC7913621 (Molecules, 2021).

Key:
[1] = tested on: colon cancer cell line HT29; details: read-out: cytotoxic effect IC50; cited from earlier work
PDE = details: read-out: PDE inhibition activity IC50; cited from earlier work
PDE5A1 = details: read-out: PDE5A1 inhibition IC50; cited from earlier work
AChE = details: read-out: AChE inhibition IC50; cited from earlier work

Row | Compound | IC50 [1] [nM] | IC50 (PDE) [nM] | IC50 (PDE5A1) [nM] | IC50 (AChE) [nM]
1 | CCN1CC(=O)N2C(Cc3c([nH]c4ccccc34)C2c2ccccc2Br)C1=O (stereo not shown) [Compound 3] | 25500 | 60 |  | 
2 | O=C1C2Cc3c([nH]c4ccccc34)C(c3ccc4c(c3)OCO4)N2C(=O)CN1CCC1CCN(Cc2ccccc2)CC1 (stereo not shown) [Compound 5] |  |  | 1530 | 32
